How the values were obtained:
A549-ACE2 [1] = assay: drug-induced phospholipidosis relative to tamoxifen; higher = more phospholipidosis
A549-ACE2 [2] = assay: phospholipidosis EC50; higher = less potent phospholipidosis inducer
U2OS [3] = assay: drug sensitivity score (DSS) for viability; higher = more toxic; extreme values may be limits of the assay; conditions: 72 h
HepG2 [4] = assay: as above; conditions: 72 h
Caco-2 [5] = assay: as above; conditions: 72 h
Vero E6 [6] = assay: as above; conditions: 72 h
Calu-3 [7] = assay: as above; conditions: 72 h
[8] = test system: A549-ACE2 infected with SARS-CoV-2; assay: cell count relative to DMSO; higher = less toxic; conditions: 24 h
U2OS [9] = assay: relative viability EC50 (midpoint between 100% and the lowest measured viability); higher = less toxic; conditions: 72 h
Vero E6 [10] = assay: as above; conditions: 72 h
[11] = test system: A549-ACE2 infected with SARS-CoV-2; assay: SARS-CoV-2 infection rate relative to DMSO; higher = more infection; conditions: 24 h
U2OS [12] = assay: cell viability relative to DMSO; higher = less toxic; conditions: 72 h
HepG2 [13] = assay: as above; conditions: 72 h
Caco-2 [14] = assay: as above; conditions: 72 h
Vero E6 [15] = assay: as above; conditions: 72 h
Calu-3 [16] = assay: as above; conditions: 72 h
[17] = test system: A549-ACE2 infected with SARS-CoV-2; assay: morphology score (similarity to uninfected cells); higher = more like uninfected cells; conditions: 24 h
HepG2 [18] = assay: relative viability EC50 (midpoint between 100% and the lowest measured viability); higher = less toxic; conditions: 72 h
Caco-2 [19] = assay: as above; conditions: 72 h

CC(C)(C)c1ccc(C(=O)CCCN2CCC(OC(c3ccccc3)c3ccccc3)CC2)cc1 [ebastine]
drug-induced phospholipidosis [%], A549-ACE2 [1]
Conditions | 0.3 µM | 0.833333 µM | 3.33333 µM | 6.66667 µM | 10 µM | 30 µM
24 h | 8.24 | 11.3 | 46.9 | 67.3 | 73.2 | 55.4
48 h | 5.48 | 4.12 | 27.6 | 52.1 | 76.4 | –
72 h | 5.22 | 0.608 | 24.1 | 42.2 | 62.6 | –

Conditions | SARS-CoV-2 infection rate [%] | cell count [%] | cell viability [%] | morphology score | phospholipidosis EC50 [µM]
A549-ACE2 [2], 24 h | – | – | – | – | 3.13
A549-ACE2 [2], 48 h | – | – | – | – | 22.1
A549-ACE2 [2], 72 h | – | – | – | – | 17.3
Caco-2 [14], 1 nM | – | – | 97.6 | – | –
Caco-2 [14], 10 nM | – | – | 102 | – | –
Caco-2 [14], 100 nM | – | – | 104 | – | –
Caco-2 [14], 1000 nM | – | – | 98.8 | – | –
Caco-2 [14], 10000 nM | – | – | 68.2 | – | –
Calu-3 [16], 1 nM | – | – | 96.4 | – | –
Calu-3 [16], 10 nM | – | – | 95.7 | – | –
Calu-3 [16], 100 nM | – | – | 106 | – | –
Calu-3 [16], 1000 nM | – | – | 101 | – | –
Calu-3 [16], 10000 nM | – | – | 60.2 | – | –
HepG2 [13], 1 nM | – | – | 89.3 | – | –
HepG2 [13], 10 nM | – | – | 110 | – | –
HepG2 [13], 100 nM | – | – | 101 | – | –
HepG2 [13], 1000 nM | – | – | 108 | – | –
HepG2 [13], 10000 nM | – | – | 60.5 | – | –
U2OS [12], 1 nM | – | – | 99 | – | –
U2OS [12], 10 nM | – | – | 94.6 | – | –
U2OS [12], 100 nM | – | – | 102 | – | –
U2OS [12], 1000 nM | – | – | 93.6 | – | –
U2OS [12], 10000 nM | – | – | 87.9 | – | –
Vero E6 [15], 1 nM | – | – | 88.3 | – | –
Vero E6 [15], 10 nM | – | – | 98.7 | – | –
Vero E6 [15], 100 nM | – | – | 92.1 | – | –
Vero E6 [15], 1000 nM | – | – | 92 | – | –
Vero E6 [15], 10000 nM | – | – | 86.8 | – | –
[8], 0.3 µM | – | 99 | – | – | –
[8], 3 µM | – | 117 | – | – | –
[8], 10 µM | – | 111 | – | – | –
[8], 30 µM | – | 58 | – | – | –
[11], 0.3 µM | 105 | – | – | – | –
[11], 3 µM | 44 | – | – | – | –
[11], 10 µM | 26 | – | – | – | –
[11], 30 µM | 26 | – | – | – | –
[17], 0.3 µM | – | – | – | -0.12 | –
[17], 3 µM | – | – | – | 0.71 | –
[17], 10 µM | – | – | – | 0.8 | –
[17], 30 µM | – | – | – | 0.25 | –

Conditions | drug sensitivity score | relative viability EC50 [µM]
Caco-2 [5] | 1.6 | –
Calu-3 [7] | 1.9 | –
HepG2 [4] | 1.5 | –
U2OS [3] | 0.3 | –
U2OS [9] | – | > 10
Vero E6 [6] | 0 | –
Vero E6 [10] | – | > 10

CC(=O)[O-].CC(=O)[O-].N.NC1CCCCC1.[Cl-].[Cl-].[Pt+4] [satraplatin]
drug-induced phospholipidosis [%], A549-ACE2 [1]
Conditions | 0.3 µM | 0.833333 µM | 3.33333 µM | 6.66667 µM | 10 µM
24 h | 3.84 | 0.69 | 3.32 | 0.26 | 5.28
48 h | 3.35 | -1.19 | -0.57 | -1.29 | -2.3
72 h | 2.49 | -2.74 | 0.684 | – | –

Conditions | drug sensitivity score | relative viability EC50 [µM]
Caco-2 [5] | 4.3 | –
Caco-2 [19] | – | 2.21
Calu-3 [7] | 2.2 | –
HepG2 [4] | 7 | –
HepG2 [18] | – | 1.16
U2OS [3] | 4.7 | –
U2OS [9] | – | 3.44
Vero E6 [6] | 2.4 | –

Conditions | SARS-CoV-2 infection rate, [11] [%] | cell count, [8] [%] | cell viability, Caco-2 [14] [%] | cell viability, Calu-3 [16] [%] | cell viability, HepG2 [13] [%] | cell viability, U2OS [12] [%] | cell viability, Vero E6 [15] [%] | morphology score, [17]
1 nM | – | – | 95.7 | 113 | 105 | 104 | 106 | –
10 nM | – | – | 99.7 | 119 | 96.5 | 109 | 103 | –
0.1 µM | 107 | 107 | – | – | – | – | – | 0.11
100 nM | – | – | 93.5 | 96.6 | 102 | 103 | 93.4 | –
0.3 µM | 108 | 94 | – | – | – | – | – | -0.19
1 µM | 90 | 98 | – | – | – | – | – | 0.26
1000 nM | – | – | 93.3 | 94.8 | 73.8 | 105 | 91.7 | –
3 µM | 97 | 93 | – | – | – | – | – | 0.04
10000 nM | – | – | 42 | 69 | 36.1 | 8.5 | 68.1 | –
